Earlier results on one substance are cited in patent US10294298B2, “Human PAC1 antibodies” (AMGEN INC., priority 2013, dated 2019).

For data set [1], the target named is T1, VPAC2 (Homo sapiens, UniProt P41587).
T1 sequence (P41587 24-438): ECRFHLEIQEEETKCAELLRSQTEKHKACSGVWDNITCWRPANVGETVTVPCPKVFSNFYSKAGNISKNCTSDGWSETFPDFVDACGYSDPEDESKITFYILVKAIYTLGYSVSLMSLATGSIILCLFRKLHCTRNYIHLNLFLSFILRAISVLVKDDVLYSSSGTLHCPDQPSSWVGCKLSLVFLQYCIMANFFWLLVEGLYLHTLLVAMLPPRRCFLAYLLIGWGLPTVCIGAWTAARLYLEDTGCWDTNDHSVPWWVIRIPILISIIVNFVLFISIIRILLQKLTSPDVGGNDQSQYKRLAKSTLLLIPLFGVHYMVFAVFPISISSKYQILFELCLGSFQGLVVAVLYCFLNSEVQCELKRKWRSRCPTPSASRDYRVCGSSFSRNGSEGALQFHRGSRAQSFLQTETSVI
The following applies: receptor agonist; background table.

For data set [2], the target named is T2, VPAC1 (Homo sapiens, UniProt P32241).
T2 sequence (P32241 31-457): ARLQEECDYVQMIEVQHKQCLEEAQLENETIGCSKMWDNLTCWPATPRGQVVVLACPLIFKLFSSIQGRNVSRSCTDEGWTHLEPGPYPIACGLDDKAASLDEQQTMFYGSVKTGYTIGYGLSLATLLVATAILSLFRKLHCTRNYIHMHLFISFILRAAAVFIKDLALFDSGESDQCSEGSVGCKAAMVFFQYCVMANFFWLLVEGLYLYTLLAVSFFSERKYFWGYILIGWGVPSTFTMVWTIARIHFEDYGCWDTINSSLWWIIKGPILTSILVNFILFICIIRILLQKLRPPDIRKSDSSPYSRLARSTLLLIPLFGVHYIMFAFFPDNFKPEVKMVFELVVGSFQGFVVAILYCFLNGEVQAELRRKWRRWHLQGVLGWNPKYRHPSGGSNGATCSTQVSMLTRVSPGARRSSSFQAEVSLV
The following applies: receptor agonist; background table.

Consider Maxadilan, for which the EC50 in data set [1] and in data set [2] was above 1000 nM throughout.
